Laboratory results published in patent US8889140B2, “Compositions and methods for tissue repair” (TransTarget, Inc., priority 2007, dated 2014).
Entries after “also recorded” stand apart in the source; their conditions may differ. Where no end group is shown, it is not given here.

Experiments:
Type in all cases: cell-based, human
[1] = tested on: HUVEC cells; assay: Haptotactic cell migration assay, modified Boyden chamber; conditions: 6 hours; for haptotactic migration compared to untreated membranes: membrane coated at 500 ng/ml to 300 μg/ml, normalized to uncoated control
Experimental: In order to test the ability of EMD peptides to recruit cells haptotactic migration assays with Hep I (SEQ ID NO:1), Hep ITT (SEQ TD NO:2), FC/HV (SEQ ID NO:3), RGD (SEQ ID NO:4), FN, and Col IV were conducted using a modified Boyden chamber. Haptotactic migration was performed in triplicate and was assessed using a modified Boyden chamber (Corning, CoStar, Acton, Mass.). The assay was carried out as follows: the lower chamber was first blocked with 10% BSA for at least 30 minutes at 37° C. followed by 3 washings with PBS. The lower surface of the membrane on the upper chamber was coated with approximately 10 μL of protein or EMD peptide solution having a concentration between 500 ng/mL-300 μg/mL and allowed to incubate for 15-30 minutes at 37° C. and then allowed to air dry at room temperature under aseptic conditions. At least one assay was performed for each concentration. Basal cell media supplemented with 0.5% BSA was then added to the lower chamber and 100 μL of H U V ECs (1×10^4 to 2×10^4 cells) in the same cell media was added to the upper chamber. The chambers were then incubated at 37° C., 5.0% CO2 for 6 hours. Upon completion of the incubation period, the cells on the membrane of the upper chamber were fixed with 4% paraformaldehyde followed by removal of the cells on the upper side of the membrane with a Q-tip. Next, the membrane was carefully removed from the chamber, dipped in a 1:4000 dilution of Hoechst 33342 (Invitrogen, Carlsbad, Calif.) and placed on a glass slide. Using a fluorescent microscope (Nikon Eclipse E800) at 10× magnification, five random fields of view were photographed on each membrane for determination of the area cell density.
In order to allow for direct comparison, the area cell density of migrated cells was normalized to the area cell density of migrated cells on the uncoated (0 μg/mL) control membrane. See, FIG. 3.

[2] = tested on: HUVEC cells; assay: Cell attachment assay (MTS) on coated wells; conditions: substrate coated at 20, 50, 100 μg/ml (fibronectin 10 and 100 μg/ml), 30 minute incubation, vs BSA 2 mg/ml
Experimental: Immulon 1B, untreated 96-well plates (CoStar), and untreated 35 mm dishes (CoStar) were purchased from Fisher Scientific (Pittsburg, Pa.). Human umbilical vein endothelial cells (HUVECs), cell culture media and supplements were purchased from Lonza (Basel, Switzerland). EMD peptides as shown in SEQ ID Nos: 1-4, were synthesized by Commonwealth Biotechnologies Inc., (Richmond, Va.). Amino acid analysis was performed on the peptides to verify the amino acid sequence.
For the adhesion studies 96-well Immulon 1B plates were used. Various concentrations of the EMD peptides (SEQ ID Nos: 1-4) were tested for their ability to bind cells, and compared to the full-length protein, from which the EMD peptides were derived as positive controls. Bovine Serum Albumin (BSA) treated wells were used as a negative control. Full-length collagen IV, and the EMD peptides Hep I, Hep III, FCHV, and RGD were tested at concentrations of 20 μg/ml, 50 μg/ml, and 100 μg/ml. Full length fibronectin was tested at concentrations of 10 μg/ml and 100 μg/ml. Negative control wells were coated with BSA at a concentration of 2 mg/ml. Fifty μL of protein or EMD peptide solutions at the various concentrations was added separate wells and incubated at 37° C. for at least 18 hours. The protein or peptide solution was then removed and the wells were blocked for 2 hours at 37° C. with 2 mg/mL BSA solution. Following the blocking procedure, wells were washed twice with PBS. HUVEC cells (Lonza, Basel Switzerland) were then added to the wells at a concentration of 5×10^3 to 1×10^4 cells per well. Following a thirty-minute incubation, […] wells were washed and cell adhesion was determined using an MTS (3-(4,5-dimethylthiazol-2-yl)-5-(3-carboxymethoxyphenyl)-2-(4-sulfophenyl)-2H-tetrazolium, inner salt) tetrazolium/formazan assay (Promega, Madison, Wis.) according to the manufacturer's instructions.

[3] = tested on: HUVEC cells; assay: Cell proliferation assay (MTS) on coated wells; conditions: substrate coated at 20, 50, 100 μg/ml (fibronectin 10 and 100 μg/ml), 1-4 days, vs BSA 2 mg/ml, p<0.05
Experimental: To determine if EMD peptides can activate cells by stimulating cellular proliferation, 96-well plates coated using the same protocol as described above for the cell attachment assay was used. Following treatment of the wells, HUVEC cells (Lonza, Basel Switzerland) were then added to the wells at a concentration of 5×10^3 to 1×10^4 cells per well and incubated under standard culture conditions for 1, 2, 3 or 4 days. Cell proliferation was then determined at the end of the incubation period using an MTS tetrazolium/formazan assay (Promega, Madison, Wis.) according to the manufacturer's instructions.

Row | Substance | haptotactic migration compared to untreated membranes ([1]; p<0.05) | cell attachment compared to BSA control ([2]; p<0.05) | cell proliferation (cell activation) compared to BSA control [3] | concentrations showing statistically significant migration ([1]; coated membrane, vs uncoated control membrane) | haptotactic migration compared to untreated membranes ([1]; p<0.05, listed as FC/HV) | cell attachment compared to BSA control ([2]; p<0.05, listed as Fibronectin)
1 | GRGDSPASSPISC-OH | significant migration compared to control; also recorded: promoted haptotactic migration | increased cell attachment; also recorded: significantly better at promoting cell attachment | increased cellular proliferation; also recorded: significantly better at stimulating cellular proliferation | – | – | –
2 | TAGSCLRKFSTMY-OH [Hep I] | promoted haptotactic migration | not statistically different from that of the BSA treated wells; also recorded: not significantly different from that of the BSA control | increased cellular proliferation; also recorded: significantly better at promoting cell proliferation | greater than 1 μg/ml | – | –
3 | WQPPRARI-OH [FCHV] | did not promote haptotactic migration | not statistically different from that of the BSA treated wells; also recorded: not significantly different from that of the BSA control | not different from that of cells cultured in wells coated with BSA; also recorded: not statistically different as compared to the BSA control | – | did not show statistically significant migration at any of the concentrations tested | –
4 | GEFYFDLRLKGDKY-OH [Hep III] | significant migration compared to control; also recorded: promoted haptotactic migration | increased cell attachment; also recorded: significantly better at promoting cell attachment | increased cellular proliferation; also recorded: significantly better at promoting cell proliferation | – | – | –
5 | fibronectin: Full length fibronectin, positive control [reference compound] | promoted haptotactic migration | significantly better at promoting cell attachment | increased cellular proliferation; also recorded: significantly better at stimulating cellular proliferation | – | – | increased cell attachment
